Consider 10 compounds from paper PMC4254045 (Bioorganic & medicinal chemistry, 2014).

Experiment [1] addresses T1, human MrgX1 (Homo sapiens, UniProt Q96LB2). As to the kind of experiment: FLIPR agonist assay, HEK293 cells stably transfected with human MrgX1. It counts as cell-based.
In experiment [2] the target is T2, rat MrgC (Rattus norvegicus, UniProt Q8R4G1).
T2 sequence (Q8R4G1 1-323): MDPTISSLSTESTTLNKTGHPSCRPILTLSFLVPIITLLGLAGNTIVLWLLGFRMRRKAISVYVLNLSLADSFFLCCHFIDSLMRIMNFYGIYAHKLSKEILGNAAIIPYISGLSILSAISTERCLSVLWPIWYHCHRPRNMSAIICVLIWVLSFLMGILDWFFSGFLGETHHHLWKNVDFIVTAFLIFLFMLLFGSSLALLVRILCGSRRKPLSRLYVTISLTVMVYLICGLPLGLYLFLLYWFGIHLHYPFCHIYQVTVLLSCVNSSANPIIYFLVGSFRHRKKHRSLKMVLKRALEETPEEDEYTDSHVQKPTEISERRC
In words: FLIPR agonist assay, transiently transfected HEK293 or KNRK cells, rat MrgC. It counts as cell-based.

Experiment [3] addresses T3, mouse MrgC11 (Mus musculus, UniProt Q8CIP3).
T3 sequence (Q8CIP3 1-322): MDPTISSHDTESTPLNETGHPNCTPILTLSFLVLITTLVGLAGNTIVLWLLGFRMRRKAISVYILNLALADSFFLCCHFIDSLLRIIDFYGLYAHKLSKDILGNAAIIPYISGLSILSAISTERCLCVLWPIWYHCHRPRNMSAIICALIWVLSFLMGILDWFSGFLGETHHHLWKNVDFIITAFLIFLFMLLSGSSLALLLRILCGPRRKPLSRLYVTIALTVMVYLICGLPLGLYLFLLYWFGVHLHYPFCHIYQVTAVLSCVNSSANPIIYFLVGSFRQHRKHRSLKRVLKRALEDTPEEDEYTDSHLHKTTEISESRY
As to the kind of experiment: FLIPR agonist assay, transiently transfected HEK293 or KNRK cells, mouse MrgC11. The note with it: for agonist activity at mouse MrgC11 (in words): full agonism relative to BAM8-22. It is filed as cell-based.

Experiment [4] has as its target T1, human MrgX1. As to the kind of experiment: Antagonist activity in human MrgX1 using BAM8-22. It is filed as cell-based. Particulars: human MrgX1, BAM8-22 (200 nM) as agonist.
Experiment [5] deals with rats. The note with it: cited from earlier work.
Experiment [6] concerns mice. Particulars: cited from earlier work.
Experiment [7] deals with T3, mouse MrgC11. Particulars: cited from earlier work.
The mark [8] stands for this setting: highest concentration tested due to limited solubility.
Where [9] appears, read: FLIPR, transiently transfected HEK293 or KNRK cells, average of at least three independent experiments ± SD.

Entries after “also recorded” stand apart in the source; their conditions may differ. Square brackets hold non-standard residues; d marks the D form. Peptide text beside a SMILES is read from it. dPhe(4-guanidino) = N=C(N)Nc1ccc(C[C@@H](N)C(=O)O)cc1; Phe(4-guanidino) = N=C(N)Nc1ccc(C[C@H](N)C(=O)O)cc1

T1 sequence (Q96LB2 whole entry): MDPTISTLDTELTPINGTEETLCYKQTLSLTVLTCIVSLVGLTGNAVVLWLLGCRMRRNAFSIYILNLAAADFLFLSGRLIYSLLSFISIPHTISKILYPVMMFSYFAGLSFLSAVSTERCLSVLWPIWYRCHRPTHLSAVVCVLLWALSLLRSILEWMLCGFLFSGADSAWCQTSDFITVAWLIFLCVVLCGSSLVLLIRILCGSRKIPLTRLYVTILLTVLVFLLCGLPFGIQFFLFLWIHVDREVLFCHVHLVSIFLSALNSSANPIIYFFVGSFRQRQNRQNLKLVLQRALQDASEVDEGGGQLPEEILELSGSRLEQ

For `COc1ccc(-c2ccc(C(=O)Nc3cccc(Cn4ncc(N5CCNCC5)cc4=O)c3C)cc2)cn1` [1c, reference compound], in experiment [1] (FLIPR), the “agonist activity at human MrgX1 (in words)” value is “selectively activated human MrgX1”. Besides, the “agonist activity at rat MrgC at concentrations up to 2 μM” value in experiment [2] (setting [8]) is on record as “no measurable agonist activity”. In experiment [3] (setting [8]), the “agonist activity at mouse MrgC11 at concentrations up to 2 μM” value is on record as “no measurable agonist activity”.

With `N=C(N)Nc1cccc(C(N)C(=O)N[C@@H](Cc2ccccc2)C(N)=O)c1` (some centres unmarked) [20a], the concentration giving a half-maximal response (EC50) in experiment [1] and in experiment [2] was over 100 µM each time. Besides, the “agonist activity at rat MrgC (in words)” value in experiment [2] (FLIPR) was “failed to show agonist activity; also recorded: Neither of the analogs showed agonist activity”.

For `N=C(N)Nc1cccc(C(N)C(=O)N[C@@H](Cc2ccccc2)C(N)=O)c1` (some centres unmarked) [20b], the “agonist activity at rat MrgC (in words)” value in experiment [2] (FLIPR) is recorded as “failed to show agonist activity; also recorded: Neither of the analogs showed agonist activity”. The “pEC50 Rat MrgC” value in experiment [2] (setting [9]) is under 4. Besides, the “pEC50 Mouse MrgC11” value in experiment [3] (setting [9]) came out at 4.5 ± 0.1.

On to `N=C(N)Nc1ccc(C[C@H](N)C(=O)N[C@@H](Cc2ccccc2)C(N)=O)cc1` [24a, (2S)-2-amino-N-((2S)-1-amino-1-oxo-3-phenylpropan-2-yl)-3-(4-guanidinophenyl)propanamide bis(trifluoroacetate)] (H-[Phe(4-guanidino)]-Phe-NH2), for which, in experiment [2] (FLIPR), the “agonist activity at rat MrgC (in words)” value is reported as “exhibited agonist activity”. Besides, the “agonist activity at mouse MrgC11 (in words)” value in experiment [3] (FLIPR) is “exhibited agonist activity”.

For `N=C(N)Nc1ccc(C[C@@H](N)C(=O)N[C@@H](Cc2ccccc2)C(N)=O)cc1` [24b, (2R)-2-amino-N-((2S)-1-amino-1-oxo-3-phenylpropan-2-yl)-3-(4-guanidinophenyl)propanamide bis(trifluoroacetate)] (H-[dPhe(4-guanidino)]-Phe-NH2), the “agonist activity at rat MrgC (in words)” value in experiment [2] (FLIPR) is listed as “exhibited agonist activity”. In experiment [2] (relative to diastereomer 24a), the “fold more potent than 24a at rat MrgC” value is given as about 100 fold. For the same compound, the “agonist activity at mouse MrgC11 (in words)” value in experiment [3] (FLIPR) is listed as “exhibited agonist activity”. Besides, the “fold more potent than 24a at mouse MrgC11” value in experiment [3] (relative to diastereomer 24a) is given as about 10 fold. In experiment [4], the “antagonist activity at concentrations up to 200 μM” value is given as “Neither Arg-Phe-NH2 nor 24b, however, showed any antagonist activity”. Further, the “effect on neuropathic pain” value in experiment [5] and in experiment [6] was “attenuated neuropathic pain” in each case.

As to `N=C(N)N[C@@H]1CN[C@H](C(=O)N[C@@H](Cc2ccccc2)C(N)=O)C1` [compound 12, (2S,4S)-N-((S)-1-amino-1-oxo-3-phenylpropan-2-yl)-4-guanidinopyrrolidine-2-carboxamide bis(trifluoroacetate)], the “agonist activity at rat MrgC (in words)” value in experiment [2] (FLIPR) was “failed to show agonist activity”.

On to `N=C(N)NC[C@@H]1CN[C@H](C(=O)N[C@@H](Cc2ccccc2)C(N)=O)C1` [compound 16, (2S,4S)-N-((S)-1-amino-1-oxo-3-phenylpropan-2-yl)-4-(guanidinomethyl)pyrrolidine-2-carboxamide bis(trifluoroacetate)], for which, in experiment [2] (FLIPR), the “agonist activity at rat MrgC (in words)” value is reported as “failed to show agonist activity”.

For Arg-Phe, the “EC50 for activating MrgC11 (in words)” value in experiment [7] is listed as “submicromolar”.

For the compound Phe-Met-Arg-Phe-NH2, the “MrgC11 agonist activity (in words)” value in experiment [7] is on record as “submicromolar”.

For Phe-Met-D-Arg-Phe-NH2, in experiment [7], the “MrgC11 agonist activity (in words)” value is “inactive”.

As usually defined, the EC50 is the concentration needed to bring the measured effect to its halfway point.
